According to a melting point compilation (Tetko et al.; mined from patent text by program, amines drawn as free bases though some values may be those of a salt):

Question: For `C[C@@H](NC(=O)c1c[nH]c2ncc(-c3nccc4ccccc34)nc12)C(=O)N1CC(C#N)C1`, which melting point is on record?
Answer: 180 to 185 °C

Question: For `CCCNC(=O)C1(CCCc2ccccc2N2Cc3ccccc3C2=O)c2ccccc2-c2ccccc21`, which melting point is on record?
Answer: 122 to 125 °C

Question: For `CCC(C)C(OCc1ccccc1)C1C(C(=O)NCC(=O)O)NC(C2CC2)C1[N+](=O)[O-]` (centres undefined), which melting point is on record?
Answer: 161 to 163 °C

Question: Which melting point does the source give for `CN1CCN(CCOc2ccc([C@H]3c4ccc(OCc5ccccc5)cc4OC[C@H]3c3ccccc3)cc2)CC1` (racemic) here?
Answer: 103 to 107 °C

Question: Which melting point does the source give for `CCCSc1sc(C(N)=O)c2c1-c1nn(C)cc1CC2` here?
Answer: 208 to 209 °C

Question: With `CC(=O)c1c(C#N)nn(-c2c(Cl)cc(C(F)(F)F)cc2Cl)c1N` as the compound, how does the melting point read?
Answer: 200 to 201 °C

Question: With `O=c1[nH]c(-c2ccc(CCCCCl)cc2)cs1` as the compound, how does the melting point read?
Answer: 111 to 117 °C

Question: Which melting point does the source give for `CCCc1c(OCCCC(=O)NCCCCc2cccnc2)ccc(C(C)=O)c1O` here?
Answer: 80 to 82 °C

Question: With `CCC(=O)Oc1ccc2c(c1)C(=O)N(C(=O)CC)C(C(Cl)(Cl)Cl)O2` (centres undefined) as the compound, how does the melting point read?
Answer: 92 to 94 °C

Question: Which melting point does the source give for `CCOC(=O)c1cc(Cl)c(Cl)c(C2=NOCC2)c1C` here?
Answer: 96 to 97 °C

Question: For `Oc1ccc(-c2nc(-c3ccc(Cl)cc3)nc(-c3ccc(O)cc3O)n2)c(O)c1`, which melting point is on record?
Answer: 232 to 234 °C

Question: Which melting point does the source give for `CNC(=O)c1cc(=O)c(-c2ccc(OC)c(OC)c2)co1` here?
Answer: 213 to 215 °C

Question: For `CCC(=O)COc1nn(CC(=O)CC)c(-c2ccc(F)cc2)c1-c1ccc(S(C)(=O)=O)cc1`, which melting point is on record?
Answer: 56 to 58 °C

Question: With `COc1nc(C)nc(NC(=O)NS(=O)(=O)c2csc3ccccc23)n1` as the compound, how does the melting point read?
Answer: 187 to 188 °C

Question: With `Fc1cccc(-c2ccc3nncn3n2)c1` as the compound, how does the melting point read?
Answer: 159 to 161 °C

Question: For `COC[C@@H](C)n1cc(Cl)nc(N2CCc3cc(Br)cc(Br)c32)c1=O`, which melting point is on record?
Answer: 119 to 120 °C

Question: For `CN1Sc2ccccc2C(=O)C1C(=O)Nc1coc2ccccc2c1=O` (centres undefined), which melting point is on record?
Answer: 290 °C

Question: With `CC(C)N(CCOc1ccccc1NC(=O)c1cccc2[nH]ccc12)C(C)C` as the compound, how does the melting point read?
Answer: 145 °C

Question: Which melting point does the source give for `O=C(CCCCCNCc1cc2nc(-c3cccc4[nH]ncc34)nc(N3CCOCC3)c2s1)NO` here?
Answer: 128 to 130 °C

Question: Which melting point does the source give for `Fc1cccc(COc2nnc(-c3ccc4c(c3)CCO4)o2)c1` here?
Answer: 91 to 92 °C

Question: Which melting point does the source give for `CCOC(=O)c1sc(SC)c2c1CCc1cn[nH]c1-2` here?
Answer: 207 to 208 °C

Question: With `COCCc1nc(Cl)c(CO)[nH]1` as the compound, how does the melting point read?
Answer: 91 to 95 °C

Question: For `CC(C)OC(=O)C1=C(c2cccc([N+](=O)[O-])c2)N2C(=O)N(C)NC2=NC1C` (centres undefined), which melting point is on record?
Answer: 255 to 256 °C

Question: For `NNC(=O)NN=Cc1ccc(Cl)cc1`, which melting point is on record?
Answer: 188 to 189 °C

Question: Which melting point does the source give for `Cc1ccc(-c2nc(=O)c3ccccc3s2)n1C` here?
Answer: 194 to 196 °C

Question: For `CCC12CCC3c4ccc(OC)cc4CCC3C1C=CC2=O` (centres undefined), which melting point is on record?
Answer: 158 to 160 °C

Question: For `CCOC(=O)C=Cc1ccn(S(=O)(=O)c2ccc3nc[nH]c(=O)c3c2)c1`, which melting point is on record?
Answer: 207 to 210 °C

Question: For `CS(=O)(=O)c1c2ccccc2c(C=O)c2ccccc12`, which melting point is on record?
Answer: 216 to 217 °C

Question: With `C=CC(C)Nc1c(-c2c(F)cc(F)cc2F)c(Cl)nc2ncnn12` (centres undefined) as the compound, how does the melting point read?
Answer: 101 °C

Question: For `O=C(CSc1ccncc1)Nc1cccc(-c2ccnc3c(C(=O)c4cccs4)cnn23)c1`, which melting point is on record?
Answer: 138 to 144 °C

Question: For `O=Cc1cccc([N+](=O)[O-])c1F`, which melting point is on record?
Answer: 46 to 47 °C

Question: Which melting point does the source give for `Fc1cccc2c(NCCc3nc(-c4ccccc4)cs3)ccnc12` here?
Answer: 134 to 135 °C

Question: With `CCCO/N=C(\C(=O)OC)c1csc(NC(=O)CCl)n1` as the compound, how does the melting point read?
Answer: 86 to 87 °C

Question: With `CS(=O)(=O)c1ccc(-c2nc(C(F)(F)F)nn2-c2ccc(O)cc2)cc1` as the compound, how does the melting point read?
Answer: 246 °C

Question: Which melting point does the source give for `CC(=O)Nc1ccc(-c2nc3ccccc3s2)cc1` here?
Answer: 227 to 229 °C

Question: Which melting point does the source give for `CC(C(=O)O)c1cccc(C(=O)c2ccccc2)c1[N+](=O)[O-]` (centres undefined) here?
Answer: 177 to 179 °C

Question: With `CN(C)Cc1nc(-c2ncn3c2CN(C)C(=O)c2c(Cl)cccc2-3)no1` as the compound, how does the melting point read?
Answer: 152 to 153 °C

Question: With `Cc1c(CO)ncn1Cc1ccccc1` as the compound, how does the melting point read?
Answer: 176 to 180 °C

Question: Which melting point does the source give for `CC(C)(C)OC(=O)N1CCN(C(=O)CCl)CC1` here?
Answer: 68 to 70 °C

Question: With `O=C(O)c1ccccc1OCCN1CCC(c2cn(CCC3COCCO3)c3ccccc23)CC1` (centres undefined) as the compound, how does the melting point read?
Answer: 139 to 140 °C

Question: For `COC(=O)Cc1ccc(OCCNC(=O)OCc2ccccc2)c(F)c1`, which melting point is on record?
Answer: 44 to 45 °C

Question: For `NC(=S)c1cc(Cl)cc2cc(Cl)cnc12`, which melting point is on record?
Answer: 226 °C

Question: Which melting point does the source give for `NC(=O)N1CCN(c2nn(-c3ccccc3Cl)c3ccccc23)CC1` here?
Answer: 156 to 158 °C

Question: With `CC(C)(C)OC(=O)N1CCC(Oc2ccc3c(c2)NC(=O)CC3)CC1` as the compound, how does the melting point read?
Answer: 158 to 160 °C

Question: Which melting point does the source give for `CC(=O)C(C)c1ccc2c(c1)Cc1cccnc1O2` (centres undefined) here?
Answer: 136 °C

Question: For `Clc1cc2c(oc3c(Cl)c(Br)c(Cl)c(Br)c32)c(Br)c1Br`, which melting point is on record?
Answer: 288 to 290 °C

Question: Which melting point does the source give for `COC(=O)c1ccccc1S(=O)(=O)NC(=O)c1nc(OC)cc(OC)n1` here?
Answer: 163 to 165 °C

Question: For `c1ccc2c(c1)cc1n2CC2(CCNC2)C1` (centres undefined), which melting point is on record?
Answer: 90 to 92 °C

Question: With `O=Cc1cnc(Nc2n[nH]c3ccc(-c4ncccc4Cl)cc23)s1` as the compound, how does the melting point read?
Answer: 223 to 224 °C

Question: With `CN1CCC(CO)(OCc2ccccc2F)CC1` as the compound, how does the melting point read?
Answer: 104 to 108 °C

Question: Which melting point does the source give for `NCCCn1cnc(-c2ccc(F)cc2)c1-c1ccncc1` here?
Answer: 81 to 82 °C

Question: With `Nc1cc(-c2noc(-c3cnc4ccc(-c5ccc(C(F)(F)F)cc5)cn34)n2)ccn1` as the compound, how does the melting point read?
Answer: 280 °C

Question: Which melting point does the source give for `O=C(C=Cc1cccc(O)c1)C=Cc1cccc(O)c1` here?
Answer: 190 to 195 °C

Question: With `CN1C(=O)C2CCCCC2N=C1c1ccccc1` (centres undefined) as the compound, how does the melting point read?
Answer: 79 to 82 °C

Question: With `O=C(OCc1ccccc1)c1ccc(CCCOCCCCCCNCC(O)c2ccc(O)c(CO)c2)cc1` (centres undefined) as the compound, how does the melting point read?
Answer: 51 to 52 °C

Question: For `COc1cccc(CO)c1C`, which melting point is on record?
Answer: 63 to 64 °C

Question: With `CC(C)CC=CC(C)C1CCC2C3=CC=C4CC(O)CCC4(C)C3CCC21C` (centres undefined) as the compound, how does the melting point read?
Answer: 120 to 122 °C

Question: With `CSc1ccc(C(=O)CCC#N)cc1` as the compound, how does the melting point read?
Answer: 122 to 124 °C

Question: Which melting point does the source give for `COc1ccc2c(c1)NC(C)(C)C=C2C` here?
Answer: 67 to 69 °C

Question: Which melting point does the source give for `CCCS(=O)(=O)c1ccc2c(c1)C(=O)C(Br)C2` (centres undefined) here?
Answer: 87 to 89 °C

Question: With `Brc1ccccc1Cn1c(-c2ccc3c(c2)OCO3)nc2ccccc21` as the compound, how does the melting point read?
Answer: 122 to 124 °C

Question: Which melting point does the source give for `CCn1c(=O)c2[nH]c(/C=C/c3ccc(OC)c(C)c3)nc2n(CC)c1=O` here?
Answer: > 270 °C

Question: For `CC(NC(=O)c1sc2ccc(C(F)(F)F)cc2c1O)=C(c1ccccc1)c1ccccc1`, which melting point is on record?
Answer: 155 to 160 °C

Question: Which melting point does the source give for `O=C(Nc1ccc2ccc(Cl)nc2n1)c1cccc(F)c1` here?
Answer: 202 °C

Question: Which melting point does the source give for `COc1ccc(OC)c2c(C=O)c3ccccc3c(C=O)c12` here?
Answer: 208 to 212 °C

Question: With `O=C(Nc1ccc2[nH]c(CO)cc2c1)c1cc2ccccc2o1` as the compound, how does the melting point read?
Answer: 164 to 165 °C

Question: With `O=S1(=O)c2ccccc2Oc2ccccc21` as the compound, how does the melting point read?
Answer: 145 to 146 °C

Question: For `CC(=O)Nc1ccc(-c2c(Cl)c(CN3C(=O)CCC3=O)nc3sc4c(c23)CCNC4)cc1`, which melting point is on record?
Answer: 300 °C

Question: Which melting point does the source give for `COCc1c(N2CCN(C)CC2)c(F)cc2c(=O)c(C(=O)OC)cn(C3CC3)c12` here?
Answer: 200 to 204 °C

Question: Which melting point does the source give for `C=C(C(=O)c1ccc(OC)c(OC)c1)c1ccc(F)cc1` here?
Answer: 77 to 78 °C

Question: Which melting point does the source give for `CN(C)C(=N[N+](=O)[O-])N(C#N)Cc1cnc(Cl)s1` here?
Answer: 152 to 155 °C

Question: For `CCOC(=O)COc1ccc(C(=O)Nc2ccccc2S(=O)c2ccccc2C#N)cc1` (centres undefined), which melting point is on record?
Answer: 128 to 130 °C

Question: For `COc1ccc(S(=O)(=O)NCCCO)c(OC)c1OC`, which melting point is on record?
Answer: 95 to 97 °C

Question: Which melting point does the source give for `Nc1cc(-c2ccoc2)ccc1Nc1cccc(-n2ccnc2)c1` here?
Answer: 188 to 189 °C
